Test results: US9518977B2, “Microfluidic assay apparatus and methods of use” (University of Washington through its Center for …, priority 2012, dated 2016)
“Also recorded” adds a separate entry of the source.

Tested on: GFP-labelled glioma cells in human GBM mouse xenograft slice
Assay: Drug testing on human GBM xenograft slices in microfluidic apparatus
Type: cell-based
Settings: 1 mM TMZ in culture medium, 48 hours selective exposure, 400 μm-thick slice, epifluorescence and confocal imaging
Text: Two hundred thousand (200,000) viable glioma cells labelled by lentiviral GFP expression were orthotopically injected in the brain of an immunodeficient mouse following proper protocols. After approximately four weeks of tumor growth, the mouse was sacrificed and the mouse brain was then transported in ice cold culture medium prior to slicing. A vibratome tissue slicer was used to produce 400 μm-thick slices from a GBM xenograft mouse brain (the tissue was submerged in oxygenated ACSF during the slicing process). Then the slices were quickly transferred onto the PTFE membrane well inserts with pre-warmed culture medium and placed in an incubator. These slices were cultured for at least 24 hours (recovery) before being used for drug testing.
To proceed with drug testing, the GBM slice was transferred from the culture membrane well insert to the microfluidic apparatus by cutting the PTFE membrane out from the well insert and then placing it onto the plurality of open microchannels of the apparatus. […] Then the wells corresponding to the determined drug delivery channels were replaced with drug solution (1 mM of TMZ in culture medium; TMZ was chosen due to its clinical relevance to GBM), and then the apparatus was connected to a syringe pump with the total flow rate of 300 μL per hour in an incubator to initiate the drug delivery. […]

Cn1nnc2c(C(N)=O)ncn2c1=O [TMZ]
cell death (loss of GFP-labelled glioma cells) at drug exposure regions: selectivity of cell death in the TMZ region; also recorded: loss of GFP-labelled glioma cells
